Data as given in article PMC2917178 (Biochemistry, 2010).
Entries after “also recorded” stand apart in the source; their conditions may differ. Where two headings read alike, the source gives them in different places.

Columns and labels:
[1] = target: Rtt109 D288N (with Vps75) (Saccharomyces cerevisiae, UniProt P53853+Q07794, D288N); assay type: biochemical, yeast (Saccharomyces cerevisiae); conditions: AcCoA varied 0.5-30 μM, 400 μM H3 peptide, 0.1-0.5 μM Rtt109 variant, 4 μM Vps75, 50 mM Tris pH 7.5, 25 °C
Sequence of Rtt109 D288N (with Vps75) (Q07794 whole entry D288N, one chain of several): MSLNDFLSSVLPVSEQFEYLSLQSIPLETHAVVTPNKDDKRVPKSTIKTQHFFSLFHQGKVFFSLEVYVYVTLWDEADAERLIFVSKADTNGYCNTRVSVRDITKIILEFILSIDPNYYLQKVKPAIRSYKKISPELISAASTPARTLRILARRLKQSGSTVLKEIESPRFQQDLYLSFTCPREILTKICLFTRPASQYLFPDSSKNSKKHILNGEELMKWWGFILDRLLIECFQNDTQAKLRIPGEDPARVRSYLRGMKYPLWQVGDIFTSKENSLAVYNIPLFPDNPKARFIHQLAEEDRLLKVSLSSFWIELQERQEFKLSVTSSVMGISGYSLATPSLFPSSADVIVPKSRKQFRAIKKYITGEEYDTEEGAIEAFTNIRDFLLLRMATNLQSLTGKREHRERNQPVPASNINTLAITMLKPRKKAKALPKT

[2] = target: Rtt109 D287N (with Vps75) (Saccharomyces cerevisiae, UniProt P53853+Q07794, D287N); assay type: biochemical, yeast (Saccharomyces cerevisiae); conditions: AcCoA varied 0.5-30 μM, 400 μM H3 peptide, 0.1-0.5 μM Rtt109 variant, 4 μM Vps75, 50 mM Tris pH 7.5, 25 °C
Sequence of Rtt109 D287N (with Vps75) (Q07794 whole entry D287N, one chain of several): as the sequence (Q07794 whole entry D288N, one chain of several) above, with D287N, N288D counted along it

Rtt109-Vps75 [3] = target: T1, Rtt109-Vps75 (Saccharomyces cerevisiae, UniProt P53853+Q07794); test: Isothermal titration calorimetry into Rtt109-Vps75; assay type: binding, yeast (Saccharomyces cerevisiae)
T1 sequence (Q07794 1-436): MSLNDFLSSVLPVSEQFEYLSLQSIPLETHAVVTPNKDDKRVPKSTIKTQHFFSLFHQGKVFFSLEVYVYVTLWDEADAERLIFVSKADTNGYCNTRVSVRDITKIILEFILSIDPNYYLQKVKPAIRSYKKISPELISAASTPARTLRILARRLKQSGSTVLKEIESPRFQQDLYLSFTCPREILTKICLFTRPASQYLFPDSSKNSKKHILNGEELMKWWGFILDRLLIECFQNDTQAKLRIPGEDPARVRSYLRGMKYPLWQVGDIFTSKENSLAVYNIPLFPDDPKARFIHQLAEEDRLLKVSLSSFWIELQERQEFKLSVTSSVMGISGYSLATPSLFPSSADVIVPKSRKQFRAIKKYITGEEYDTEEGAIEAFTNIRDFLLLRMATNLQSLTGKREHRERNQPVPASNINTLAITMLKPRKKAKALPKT
T1 sequence (P53853 1-264 partner): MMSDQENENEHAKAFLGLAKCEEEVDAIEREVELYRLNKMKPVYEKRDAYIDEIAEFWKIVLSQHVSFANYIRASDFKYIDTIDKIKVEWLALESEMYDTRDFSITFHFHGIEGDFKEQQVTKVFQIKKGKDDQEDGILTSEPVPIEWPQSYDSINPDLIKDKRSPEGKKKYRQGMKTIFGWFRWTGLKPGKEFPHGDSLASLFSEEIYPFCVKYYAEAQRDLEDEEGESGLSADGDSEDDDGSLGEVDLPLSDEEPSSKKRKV

Rtt109-Vps75 [4] = target: T1, Rtt109-Vps75; test: CoA product inhibition of Rtt109-Vps75; assay type: biochemical, yeast (Saccharomyces cerevisiae)
[5] = Stability of Rtt109 alone; assay type: physicochemical; conditions: without AcCoA or Vps75, 25°C
Rtt109 = test: HAT activity with fluorescein-labeled Vps75; assay type: biochemical, yeast; conditions: fluorescein-5-maleimide labeled Vps75, 1:1 label to Vps75
p300 = conditions: cited from earlier work

For `CC(=O)SCCNC(=O)CCNC(=O)[C@H](O)C(C)(C)COP(=O)(O)OP(=O)(O)OC[C@H]1O[C@@H](n2cnc3c(N)ncnc32)[C@H](O)[C@@H]1OP(=O)(O)O` [AcCoA, acetyl-Coenzyme A], the Km [1] was 4.9 ± 0.9 µM, the kcat [1] was 2.8 ± 0.2 × 10^-3 s^-1 and the kcat/Km [1] was 6 ± 1 × 10^2 M^-1s^-1. For the same molecule, the Km [2] was 0.7 ± 0.3 µM, the kcat [2] was 1.2 ± 0.1 × 10^-2 s^-1 and the kcat/Km [2] was 1.7 ± 0.7 × 10^4 M^-1s^-1. For the same molecule, the Kd (Rtt109-Vps75 [3]; 167 μM AcCoA titrated into 5.8 μM Rtt109-Vps75, 50 mM Tris pH 7.5 at 25°C, 5% glycerol, 50 mM NaCl, 2 mM β-mercaptoethanol, 1 mM EDTA, one-site model) was 1.4 ± 0.3 µM and the “binding affinity for AcCoA over CoA” value (Rtt109-Vps75 [3]; ratio of binding affinities, Rtt109-Vps75) was 30 fold.
For `CC(C)(COP(=O)(O)OP(=O)(O)OC[C@H]1O[C@@H](n2cnc3c(N)ncnc32)[C@H](O)[C@@H]1OP(=O)(O)O)[C@@H](O)C(=O)NCCC(=O)NCCS` [CoA, Coenzyme A], the Ki (Rtt109-Vps75 [4]) was 110 ± 20 µM, the “product inhibition pattern versus AcCoA” value (Rtt109-Vps75 [4]; varied AcCoA, fixed CoA, 5 μM full-length H3, double reciprocal plot) was “binds competitively with AcCoA; also recorded: competitive inhibition” and the Kd (Rtt109-Vps75 [3]) was 43 ± 5 µM.
For “Rtt109: yeast histone acetyltransferase, Regulator of Ty1 Transposition 109”, the “stability of protein alone” value [5] was “unstable and precipitates at 25 °C; also recorded: unstable protein and is highly prone to aggregation”.
With “labeled Vps75: Vps75 labeled with fluorescein-5-maleimide, 1:1” the “loss in HAT activity on fluorescein labeling” value (Rtt109) was < 2 fold.
For “p300: mammalian HAT, structural homolog of Rtt109”, the “pKa of ionizable group required for catalysis” value (p300) is given as 8.4.
